Experimental data as given in publication PMC4022547 (Molecular Brain, 2014).
“And” between values parts separate entries of the source, which are not always exact repeats. Equal values may be shown once.

Experiments:
hα6 + hβ4 + hβ3 nAChR = hα6 + hβ4 + hβ3 nAChR (Homo sapiens, UniProt P30926+Q15825); set-up: method as in PMID 11044728; settings: ref [29]; cited from earlier work
[1] = target: hα6(A112V) + hβ4 + hβ3 nAChR (Homo sapiens, UniProt P30926+Q15825, A112V); settings: 100 μM nicotine; oocytes clamped at −70 mV
Method: (§1) We planned to introduce identical amounts of cRNA, presumably producing equal amounts of each subunit protein, into oocytes largely due to lack of information about the levels of mRNA for each subunits that compose α6*-nAChRs in neurons or other cells. Concentrations of cRNAs for each nAChR α and β subunits (WT, mutant or variant) were adjusted to 500 ng μL^−1. We provisionally assumed that hα6 or its variants in association with hβ2 or hβ4 subunits would form complexes having 2:3 and/or 3:2 ratios of the indicated subunits and that oocytes also injected with WT or mutant form of β3 subunits (i.e., β3^V9’S) would express nAChR with 2:2:1 ratios of α:β:(β3 or β3^V9’S) subunits. For expression of binary nAChRs (i.e., two subunit containing nAChRs; α + β but not β3) cRNA mixtures were prepared by mixing 1 μL of cRNA for each subunit and an additional μL of RNAse free water (i.e., total volume 3 μL). Similarly for expression of ternary nAChRs [i.e., three subunit containing nAChRs; (α + β) + (β3 or β3^V9’S)] cRNA mixtures were prepared by mixing 1 μL of cRNA for each subunit. Several preparations of each mixture were prepared and stored at −80°C until further use. Injection of 138 nL of cRNA, out of 3 μL cRNA mixtures, into each oocyte would deliver ~23 ng of cRNA for each subunit whether binary or ternary nAChRs are expressed.
(§2) Two to 5 days after injection, oocytes were placed in a small-volume chamber and continuously perfused with OR2. The chamber was grounded through an agarose bridge. The oocytes were voltage-clamped at −70 mV (unless otherwise noted) to measure agonist or antagonist induced currents using Axoclamp 900A and pClamp 10.2 software (Molecular Devices, Sunnyvale, CA). The current signal was low-pass filtered at 10 Hz with the built-in low-pass Bessel filter in the Axoclamp 900A and digitized at 20 Hz with Axon Digidata1440A and pClamp10. […] Drugs (agonists and antagonists) were prepared daily in OR2. Drug was applied using a Valvelink 8.2 perfusion system (Automate scientific, Berkeley, CA). […] Then for the purpose of comparison electrophysiological recordings were performed in a given day in a given batch of oocytes following the same order of injections. […] All hβ4*-nAChR recordings were done in similar conditions to facilitate comparisons between hα6hβ4- and hα6hβ4hβ3-nAChRs. All electrophysiological measurements were conducted or checked in at least two batches of oocytes.
(§3) Raw data was collected and processed in part using pClamp 10.2 (Molecular Devices, Sunnyvale, CA), Origin 7.5 (OriginLab Corporation, Northampton, MA) and a spreadsheet (Excel; Microsoft, Bellevue, WA). Peak current amplitudes (Imax) are reported as mean ± SEM (for results from at least three oocytes, i.e., n = 3).

[2] = test system: hα6(R96H) + WT hβ2 + hβ3^V9’S nAChR; settings: 100 μM nicotine; higher, p < 0.05
Method: as §1, §2, §3

hα6(N203T) + hβ4 nAChR = hα6(N203T) + hβ4 nAChR (Homo sapiens, UniProt P30926+Q15825, N203T); settings: 100 μM nicotine; oocytes clamped at −70 mV
Method: as §1, §2, §3

[3] = target: hα6(I226T) + hβ4 + hβ3 nAChR (Homo sapiens, UniProt P30926+Q15825, I226T); settings: 100 μM nicotine; oocytes clamped at −70 mV
Method: as §1, §2, §3

[4] = target: hα6(A184D) + WT hβ2 + hβ3^V9’S nAChR (Homo sapiens, UniProt P17787+Q15825, A184D); settings: 100 μM nicotine; 3 days after cRNA injection
Method: as §1, §2, §3

[5] = target: hα6(E101K) + codon optimized hβ2 + hβ3^V9’S nAChR (Homo sapiens, UniProt P17787+Q15825, E101K); settings: 100 μM nicotine; oocytes clamped at −70 mV
Method: as §1, §2, §3

[6] = test system: hα6(S233C) + WT hβ2 + hβ3^V9’S nAChR; settings: 100 μM nicotine; higher, p < 0.05
Method: as §1, §2, §3

[7] = target: hα6(N203T) + codon optimized hβ2 + hβ3^V9’S nAChR (Homo sapiens, UniProt P17787+Q15825, N203T); settings: 100 μM nicotine; oocytes clamped at −70 mV
Method: as §1, §2, §3

[8] = target: hα6(D92E) + WT hβ2 + hβ3^V9’S nAChR (Homo sapiens, UniProt P17787+Q15825, D92E); settings: nicotine
Method: as §1, §2, §3

[9] = target: hα6(D57N) + hβ4 + hβ3 nAChR (Homo sapiens, UniProt P30926+Q15825, D57N); settings: nicotine
Method: as §1, §2, §3

[10] = test system: hα6(D199Y) + WT hβ2 + hβ3^V9’S nAChR; settings: 100 μM nicotine; higher, p < 0.05
Method: as §1, §2, §3

[11] = target: hα6(S43P) + hβ4 + hβ3 nAChR (Homo sapiens, UniProt P30926+Q15825, S43P); settings: 100 μM nicotine; oocytes clamped at −70 mV
Method: as §1, §2, §3

[12] = target: hα6(N46K) + WT hβ2 + hβ3^V9’S nAChR (Homo sapiens, UniProt P17787+Q15825, N46K); settings: nicotine
Method: as §1, §2, §3

[13] = target: hα6(R96H) + codon optimized hβ2 + hβ3^V9’S nAChR (Homo sapiens, UniProt P17787+Q15825, R96H); settings: 100 μM nicotine; oocytes clamped at −70 mV
Method: as §1, §2, §3

[14] = target: hα6 + WT hβ2 + hβ3^V9’S nAChR (Homo sapiens, UniProt P17787+Q15825); settings: 100 μM nicotine; 3 days after cRNA injection
Method: as §1, §2, §3

[15] = target: hα6(A184D) + codon optimized hβ2 + hβ3^V9’S nAChR (Homo sapiens, UniProt P17787+Q15825, A184D); settings: 100 μM nicotine; oocytes clamped at −70 mV
Method: as §1, §2, §3

[16] = target: hα6(N203T) + WT hβ2 + hβ3^V9’S nAChR (Homo sapiens, UniProt P17787+Q15825, N203T); settings: 100 μM nicotine
Method: as §1, §2, §3

hα6 + WT hβ2 + hβ3^V9’S nAChR, sequence (Q15825 26-494): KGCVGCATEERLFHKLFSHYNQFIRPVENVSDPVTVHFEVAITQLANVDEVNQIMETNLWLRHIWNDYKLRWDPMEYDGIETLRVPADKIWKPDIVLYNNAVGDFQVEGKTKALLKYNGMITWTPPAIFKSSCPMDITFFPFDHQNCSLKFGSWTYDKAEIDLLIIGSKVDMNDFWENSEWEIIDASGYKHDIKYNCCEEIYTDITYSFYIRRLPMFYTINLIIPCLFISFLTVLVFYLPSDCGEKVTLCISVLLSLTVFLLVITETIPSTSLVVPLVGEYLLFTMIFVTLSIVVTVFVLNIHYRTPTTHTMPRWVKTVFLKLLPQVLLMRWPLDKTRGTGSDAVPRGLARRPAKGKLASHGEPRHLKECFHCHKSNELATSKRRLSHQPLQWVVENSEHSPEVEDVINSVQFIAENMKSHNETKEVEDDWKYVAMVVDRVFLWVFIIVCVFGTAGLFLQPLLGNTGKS
hα6 + WT hβ2 + hβ3^V9’S nAChR, sequence (P17787 26-502): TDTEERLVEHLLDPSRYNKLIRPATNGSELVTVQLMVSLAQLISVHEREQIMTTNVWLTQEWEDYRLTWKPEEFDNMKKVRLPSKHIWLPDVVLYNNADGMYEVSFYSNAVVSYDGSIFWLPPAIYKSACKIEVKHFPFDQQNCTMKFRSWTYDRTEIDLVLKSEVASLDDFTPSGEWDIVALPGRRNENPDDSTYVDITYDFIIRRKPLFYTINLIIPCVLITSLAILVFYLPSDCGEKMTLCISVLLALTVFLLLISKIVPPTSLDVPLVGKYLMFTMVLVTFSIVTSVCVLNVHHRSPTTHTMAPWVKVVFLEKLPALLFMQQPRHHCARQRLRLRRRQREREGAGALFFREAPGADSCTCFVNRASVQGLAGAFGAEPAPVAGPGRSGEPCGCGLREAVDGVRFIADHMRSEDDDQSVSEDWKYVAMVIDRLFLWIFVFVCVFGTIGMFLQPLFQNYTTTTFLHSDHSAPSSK
hα6 + WT hβ2 + hβ3^V9’S nAChR, sequence (Q05901 22-458 V273S partner): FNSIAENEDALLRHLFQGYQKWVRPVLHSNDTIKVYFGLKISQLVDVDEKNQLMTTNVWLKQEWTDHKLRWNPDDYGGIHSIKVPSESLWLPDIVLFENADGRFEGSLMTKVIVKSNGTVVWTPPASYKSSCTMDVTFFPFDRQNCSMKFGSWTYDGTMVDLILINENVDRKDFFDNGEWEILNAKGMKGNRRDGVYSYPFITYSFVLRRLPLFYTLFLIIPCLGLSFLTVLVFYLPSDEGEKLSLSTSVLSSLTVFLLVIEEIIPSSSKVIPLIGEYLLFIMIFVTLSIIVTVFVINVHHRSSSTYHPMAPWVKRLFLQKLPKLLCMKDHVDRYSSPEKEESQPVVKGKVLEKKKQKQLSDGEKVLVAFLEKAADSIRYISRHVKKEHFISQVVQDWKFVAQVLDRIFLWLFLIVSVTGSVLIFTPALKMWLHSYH
hα6(N203T) + WT hβ2 + hβ3^V9’S nAChR, sequence (Q15825 26-494 N203T): as the sequence (Q15825 26-494) above, with N178T counted along it
hα6(N203T) + WT hβ2 + hβ3^V9’S nAChR, sequence (P17787 26-502): as the sequence (P17787 26-502) above
hα6(N203T) + WT hβ2 + hβ3^V9’S nAChR, sequence (Q05901 25-458 V273S partner limits assumed): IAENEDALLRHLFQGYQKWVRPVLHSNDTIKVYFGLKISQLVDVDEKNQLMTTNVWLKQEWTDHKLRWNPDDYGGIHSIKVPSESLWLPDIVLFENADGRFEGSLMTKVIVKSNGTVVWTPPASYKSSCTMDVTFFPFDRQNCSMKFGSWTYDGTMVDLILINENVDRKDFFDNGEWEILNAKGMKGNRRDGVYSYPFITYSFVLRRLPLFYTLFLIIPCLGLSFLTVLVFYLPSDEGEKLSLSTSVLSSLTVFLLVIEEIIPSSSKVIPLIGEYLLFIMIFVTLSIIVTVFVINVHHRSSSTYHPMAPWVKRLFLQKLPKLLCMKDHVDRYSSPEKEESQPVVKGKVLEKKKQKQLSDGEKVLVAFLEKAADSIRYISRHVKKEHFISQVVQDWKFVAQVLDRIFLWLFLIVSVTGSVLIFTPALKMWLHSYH
hα6(S43P) + hβ4 + hβ3 nAChR, sequence (Q15825 26-494 S43P): as the sequence (Q15825 26-494) above, with S18P counted along it
hα6(S43P) + hβ4 + hβ3 nAChR, sequence (P30926 22-498): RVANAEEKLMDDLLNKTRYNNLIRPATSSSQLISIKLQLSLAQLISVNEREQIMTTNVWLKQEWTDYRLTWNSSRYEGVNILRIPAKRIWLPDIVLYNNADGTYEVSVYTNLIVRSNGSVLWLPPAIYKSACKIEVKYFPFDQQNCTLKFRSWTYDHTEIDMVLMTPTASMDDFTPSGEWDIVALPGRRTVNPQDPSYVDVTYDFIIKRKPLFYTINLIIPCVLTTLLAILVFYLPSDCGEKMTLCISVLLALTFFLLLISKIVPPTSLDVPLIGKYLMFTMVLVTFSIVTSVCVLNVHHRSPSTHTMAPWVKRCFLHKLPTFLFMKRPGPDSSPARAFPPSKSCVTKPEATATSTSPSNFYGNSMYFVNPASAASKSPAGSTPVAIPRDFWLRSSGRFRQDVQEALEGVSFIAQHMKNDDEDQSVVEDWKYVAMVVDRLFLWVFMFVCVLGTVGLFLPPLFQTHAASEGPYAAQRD
hα6(S43P) + hβ4 + hβ3 nAChR, sequence (Q05901 25-458 partner limits assumed): as the sequence (Q05901 25-458 V273S partner limits assumed) above, with S249V counted along it

## CN1CCC[C@H]1c1cccnc1 [nicotine, L-nicotine]
hα6 + hβ4 + hβ3 nAChR
  EC50: 10 ± 3 µM
[1]
  Mean (±SE) peak current response: 482 ± 59 nA
[2]
  peak current response relative to hα6hβ2hβ3^V9’S-nAChRs: 2-5 fold
hα6(N203T) + hβ4 nAChR
  peak current (Imax, mean ± SE): 33 ± 3 nA
[3]
  Mean (±SE) peak current response: 403 ± 79 nA
[4]
  peak current response: 15-30 nA
[5]
  peak current (Imax, mean ± SE): 551 ± 156 nA
[6]
  peak current response relative to hα6hβ2hβ3^V9’S-nAChRs: 2-5 fold
[7]
  peak current (Imax, mean ± SE): 762 ± 253 nA
[8]
  current response: did not yield current responses
[9]
  current response: did not elicit current responses
[10]
  peak current response relative to hα6hβ2hβ3^V9’S-nAChRs: 2-5 fold
[11]
  Mean (±SE) peak current response: 208 ± 22 nA
[12]
  current response: did not yield current responses
[13]
  peak current (Imax, mean ± SE): 1075 ± 175 nA
[14]
  peak current response: 15 ± 2 nA and 15-30 nA
[15]
  peak current (Imax, mean ± SE): 616 ± 95 nA
[16]; 3 days after cRNA injection
  peak current response: 15-30 nA
[16]; 5 days after injection
  Mean (±SEM) current response: 53 ± 12 nA
